Source: patent US9546157B2, “Asymmetric piperidinyl-substituted ureas as medicines” (Helsinn Healthcare SA, priority 2014, dated 2017)

Experiments:
GHSR1a [1] = biological target: T1, GHSR1a (Homo sapiens, UniProt Q92847); assay: Calcium FLIPR assay, GHSR-1a antagonism (reduction of ghrelin response); assay type: cell-based; conditions: HEK293/GHSR1a cells, ghrelin 10 nM
T1 construct: expressed in transfected cells; host or cells: HEK293
Procedure, shortened: (§1)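 Antagonist potency reflects lowering of the 10 nM ghrelin calcium signal in HEK293/GHSR1a cells, with compound and ghrelin given at t=20 sec. Agonism was scored from the 2-minute fluorescence response to compound alone.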

GHSR1a [2] = biological target: T1, GHSR1a; assay: Calcium FLIPR assay, GHSR-1a agonism; assay type: cell-based; set-up: Emax: unit not given here; conditions: HEK293/GHSR1a cells
Procedure, shortened: as §1

[3] = Metabolic Stability (H = Human); assay type: in vitro ADME
[4] = Metabolic Stability (M = Mouse); assay type: in vitro ADME

T1 sequence (Q92847 whole entry): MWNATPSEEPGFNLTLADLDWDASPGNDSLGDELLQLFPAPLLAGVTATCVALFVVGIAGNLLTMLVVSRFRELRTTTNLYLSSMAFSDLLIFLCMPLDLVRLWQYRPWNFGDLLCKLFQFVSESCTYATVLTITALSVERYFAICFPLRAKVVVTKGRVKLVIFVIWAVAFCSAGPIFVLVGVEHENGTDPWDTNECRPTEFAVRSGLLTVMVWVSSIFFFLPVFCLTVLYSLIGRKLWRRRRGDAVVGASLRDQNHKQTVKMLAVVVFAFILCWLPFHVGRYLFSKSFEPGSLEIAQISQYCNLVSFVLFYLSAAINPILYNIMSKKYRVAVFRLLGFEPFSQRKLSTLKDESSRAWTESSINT

| Structure (SMILES) | IC50 (GHSR1a [1]) [µM] | EC50 (GHSR1a [2]) [µM] | Metabolic Stability H [3] | Metabolic Stability M [4] | Emax (GHSR1a [2]) |
| --- | --- | --- | --- | --- | --- |
| CCC(NC(=O)N(C)C1CCN(C)CC1)c1ccc(-c2cncc(F)n2)c(Cl)c1Cl (centres unmarked) [Compound H0863, 3-(1-(2,3-dichloro-4-(6-fluoropyrazin-2-yl)phenyl)propyl)-1-methyl-1-(1-methylpiperidin-4-yl)urea] | 0.003 | > 30 | Medium | High | – |
| CC(NC(=O)N(C)C1CCN(C)CC1)c1ccc(-c2ccc(C(F)F)s2)c(Cl)c1Cl (centres unmarked) [Compound H0654, 3-(1-(2,3-dichloro-4-(5-(difluoromethyl)thiophen-2-yl)phenyl)ethyl)-1-methyl-1-(1-methylpiperidin-4-yl)urea] | 0.006 | 0.01 | High | Medium | 2200 |
| CC(NC(=O)N(C)C1CCN(C)CC1)c1ccc(-c2cccs2)c(Cl)c1F (centres unmarked) [Compound H0582, 3-(1-(34-chloro-2-fluoro-4-(thiophen-2-yl)phenyl)ethyl)-1-methyl-1-(1-methylpiperidin-4-yl)urea] | 0.015 | 0.02 | Medium H Medium M | Medium H Medium M | 2069 |
| CC(NC(=O)N(C)C1CCN(C)CC1)c1ccc(-c2ccoc2)c(Cl)c1Cl (centres unmarked) [Compound H0507, 3-(1-(2,3-dichloro-4-(furan-3-yl)phenyl)ethyl)-1-methyl-1-(1-methylpiperidin-4-yl)urea] | 0.008 | 0.012 | High H High M | High H High M | – |
| COC(=O)c1ccc(CN(C(=O)NC(C)c2ccc(-c3cn[nH]c3)c(Cl)c2Cl)C2CCN(C)CC2)cc1 (centres unmarked) [Compound H0537, methyl 4-((3-(1-(2,3-dichloro-4-(1H-pyrazol-4-yl)phenyl)ethyl)-1-(1-methylpiperidin-4-yl)ureido)methyl)benzoate] | 0.013 | > 30 | Poor H Poor M | Poor H Poor M | – |
| CC(NC(=O)N(C)C1CCN(C)C1)c1ccc(-c2ccsc2)c(Cl)c1Cl (centres unmarked) [Compound H0531, 3-(1-(2,3-dichloro-4-(thiophen-3-yl)phenyl)ethyl)-1-methyl-1-(1-methylpyrrolidin-3-yl)urea] | 0.004 | 0.005 | Medium | Poor | – |
| CC(NC(=O)N(C)C1CCN(C)CC1)c1ccc(-c2c[nH]cn2)c(Cl)c1Cl (centres unmarked) [Compound H0542, 3-(1-(2,3-dichloro-4-(1H-imidazol-4-yl)phenyl)ethyl)-1-methyl-1-(1-methylpiperidin-4-yl)urea] | 0.018 | 0.015 | High H High M | High H High M | – |
| CC(NC(=O)N(C)C1CCN(C)CC1)c1ccc(-c2c[nH]nn2)c(Cl)c1Cl (centres unmarked) [Compound H0604, 3-(1-(2,3-dichloro-4-(1H-1,2,3-triazol-4-yl)phenyl)ethyl)-1-methyl-1-(1-methylpiperidin-4-yl)urea] | 0.012 | 0.025 | High H High M | High H High M | – |
| CC(NC(=O)N(C)C1CCN(C)CC1)c1ccc(-c2cnc3[nH]ccc3c2)c(Cl)c1Cl (centres unmarked) [Compound H0514] | 0.016 | 0.038 | Medium H Medium M | Medium H Medium M | – |
| CC(NC(=O)N(C)C1CCN(C)CC1C)c1ccc(-c2cccnc2)c(Cl)c1Cl (centres unmarked) [Compound H0527, 3-(1-(2,3-dichloro-4-(pyridin-3-yl)phenyl)ethyl)-1-(1,3-dimethylpiperidin-4-yl)-1-methylurea] | 0.019 | > 30 | Medium H Medium M | Medium H Medium M | – |
| CCN(C(=O)N[C@@H](C)c1ccc(-c2cnccn2)c(Cl)c1Cl)C1CCN(C)CC1 [Compound H0889, (S)-3-(1-(2,3-dichloro-4-(pyrazin-2-yl)phenyl)ethyl)-1-ethyl-1-(1-methylpiperidin-4-yl)urea] | 0.006 | > 30 | High H High M | High H High M | – |
| CC(NC(=O)N(C)C1CCN(C)CC1)c1ccc(-c2ccc(C(N)=O)cc2)c(Cl)c1Cl (centres unmarked) [Compound H0615, 2′,3′-dichloro-4′-(1-(3-methyl-3-(1-methylpiperidin-4-yl)ureido)ethyl)-[1,1′-biphenyl]-4-carboxamide] | 0.107 | > 30 | High | Medium | – |
| CN1CCC(N(C)C(=O)NC(COCc2cccc(CO)c2)c2ccc(-c3cncnc3)c(Cl)c2Cl)CC1 (centres unmarked) [Compound H0620, 3-(1-(2,3-dichloro-4-(pyrimidin-5-yl)phenyl)-2-((3-(hydroxymethyl)benzyl)oxy)ethyl)-1-methyl-1-(1-methylpiperidin-4-yl)urea] | 0.032 | > 30 | Poor H Poor M | Poor H Poor M | – |
| CC(NC(=O)N(C)C1CCN(C)CC1)c1ccc(-c2cc(F)cc(CO)c2)c(Cl)c1Cl (centres unmarked) [Compound H0696, 3-(1-(2,3-dichloro-3′-fluoro-5′-(hydroxymethyl)-[1,1′-biphenyl]-4-yl)ethyl)-1-methyl-1-(1-methylpiperidin-4-yl)urea] | 0.12 | > 30 | – | – | – |
| COC(=O)c1ccc(C(C)NC(=O)N(C)C2CCN(C)CC2)c(Cl)c1Cl (centres unmarked) [Compound H0521] | 0.02 | 0.019 | – | – | – |
| CC(NC(=O)N(C)C1CCN(C)CC1)c1ccc(-c2cccs2)c(Cl)c1Cl (single isomer, unassigned) [Compound H0564, 3-(1-(2,3-dichloro-4-(thiophen-2-yl)phenyl)ethyl)-1-methyl-1-(1-methylpiperidin-4-yl)urea] | 0.075 | 0.124 | – | – | 1987 |
| COCCc1cncc(-c2ccc(C(C)NC(=O)N(C)C3CCN(C)CC3)c(Cl)c2Cl)c1 (centres unmarked) [Compound H0714, 3-(1-(2,3-dichloro-4-(5-(2-methoxyethyl)pyridin-3-yl)phenyl)ethyl)-1-methyl-1-(1-methylpiperidin-4-yl)urea] | 0.453 | > 30 | – | – | – |
| CC(NC(=O)N(C)C1CCN(C)CC1)c1ccc(-c2ccc(C=O)s2)c(Cl)c1Cl (centres unmarked) [Compound H0651, 3-(1-(2,3-dichloro-4-(5-formylthiophen-2-yl)phenyl)ethyl)-1-methyl-1-(1-methylpiperidin-4-yl)urea] | 0.004 | 0.011 | – | – | 2300 |
| CC(NC(=O)N(C)C1CCN(C)CC1)c1ccc(-c2cccc3c2cnn3C)c(Cl)c1Cl (centres unmarked) [Compound H0512, 3-(1-(2,3-dichloro-4-(1-methyl-1H-indazol-4-yl)phenyl)ethyl)-1-methyl-1-(1-methylpiperidin-4-yl)urea] | 0.495 | > 30 | – | – | – |
| CC(NC(=O)N(C)C1CCN(C)CC1)c1ccc(-c2ccnnc2)c(Cl)c1Cl (centres unmarked) [Compound H0783, 3-(1-(2,3-dichloro-4-(pyridazin-4-yl)phenyl)ethyl)-1-methyl-1-(1-methylpiperidin-4-yl)urea] | 0.681 | 0.03 | – | – | – |
| CC(NC(=O)N(C)C1CCN(C)CC1)c1ccc(C2OCCO2)c(Cl)c1Cl (centres unmarked) [Compound H0645, 3-(1-(2,3-dichloro-4-(1,3-dioxolan-2-yl)phenyl)ethyl)-1-methyl-1-(1-methylpiperidin-4-yl)urea] | 0.133 | 0.287 | – | – | 2761 |
| CC(NC(=O)N(C)C1CCN(C)CC1)c1ccc(-c2cccnn2)c(Cl)c1Cl (centres unmarked) [Compound H0729, 3-(1-(2,3-dichloro-4-(pyridazin-3-yl)phenyl)ethyl)-1-methyl-1-(1-methylpiperidin-4-yl)urea] | 0.1 | 0.095 | – | – | 2818 |
| CC(NC(=O)N(C)C1CCN(C)CC1)c1ccc(-c2cc(F)cc(F)c2)c(Cl)c1Cl (centres unmarked) [Compound H0605, 3-(1-(2,3-dichloro-3′,5′-difluoro[1,1′-biphenyl]-4-yl)ethyl)-1-methyl-1-(1-methylpiperidin-4-yl)urea] | 0.031 | 0.096 | – | – | 1833 |
| CC(NC(=O)N(C)C1CCN(C)CC1)c1ccc(-c2ccc(C(=O)O)s2)c(Cl)c1Cl (centres unmarked) [Compound H0689, 5-(2,3-dichloro-4-(1-(3-methyl-3-(1-methylpiperidin-4-yl)ureido)ethyl)phenyl)thiophene-2-carboxylic acid] | > 1 | > 30 | – | – | – |
| CC(NC(=O)N(C)C1CCN(C)CC1)c1ccc(-c2cccc(F)c2)c(Cl)c1Cl (centres unmarked) [Compound H0810, 3-(1-(2,3-dichloro-3′-fluoro-[1,1′-biphenyl]-4-yl)ethyl)-1-methyl-1-(1-methylpiperidin-4-yl)urea] | 0.02 | 0.022 | – | – | 2339 |
| C=Cc1ccc(C(C)NC(=O)N(C)C2CCN(C)CC2)c(Cl)c1Cl (centres unmarked) [Compound H0626, 3-(1-(2,3-dichloro-4-vinylphenyl)ethyl)-1-methyl-1-(1-methylpiperidin-4-yl)urea] | 0.004 | 0.015 | – | – | 3835 |
| CC(NC(=O)N(C)C1CCCCC1)c1ccc(-c2cncnc2)c(Cl)c1Cl (centres unmarked) [Compound H0584, 1-cyclohexyl-3-(1-(2,3-dichloro-4-(pyrimidin-5-yl)phenyl)ethyl)-1-methylurea] | 1.1 | > 30 | – | – | – |
| C#Cc1ccc(C(C)NC(=O)N(O)C2CCN(C)CC2)c(Cl)c1Cl (centres unmarked) [Compound H0745, 3-(1-(2,3-dichloro-4-ethynylphenyl)ethyl)-1-hydroxy-1-(1-methylpiperidin-4-yl)urea] | 0.057 | 0.097 | – | – | 2391 |
